{"source": "patent US12150777B2", "about": "“Treatment of depression” (The Board of Trustees of the Leland Stanford Junior …, priority 2018, dated 2024)", "key": {"[1]": {"experiment": "Moderation of outcome by left amygdala PPI task-related connectivity", "type": "in vivo, human", "method": "Context-dependent connectivity analyses were conducted using the generalized PPI toolbox^1. A “seed” region was defined volumetrically using an anatomical region of interest mask of the left and right amygdala. Each amygdala mask was then deformed from Montereal Neurological Institute standard space into the participant's native anatomical space using the inverse warp parameter determined during spatial normalization of the preprocessing stage. […] The interaction of the time series of behavioral parameters of interest, i.e. the task conditions utilized in the first-level activation analysis, with the deconcolved “neuronal” time series were calculated for each task condition of interest, thus producing a fully specified statistical model modeling the interaction of each task condition with the observed BOLD time series (a psychophysiological interaction). […] The first-level beta weights for the contrasts of conditions of interest were then calculated on the individual level, and individual-level generalized PPI beta maps were then carried to a second level linear mixed model analysis conducted in R using the fmri^2 and nlme^3 packages to assess voxelwise task-dependent connectivity moderation effects (as in the activation analyses)."}, "[2]": {"experiment": "EMBARC randomized trial, sertraline versus placebo, HAMD17 outcome", "type": "in vivo, human", "settings": "all patients", "excerpt": "Assessments and treatment protocol: The primary clinical outcome was total scores on the Hamilton Rating Scale for Depression 17-item (HAMD17)^24,25, administered at each study visit (baseline, week 1, week 2, week 3, week 4, week 6, and week 8).\nKey eligibility for the study included being 18-65 years old, having major depression as a primary diagnosis by the Structured Clinical Interview for DSM-IV Axis I Disorders^1, at least moderate depression severity with a score≥14 on the Quick Inventory of Depressive Symptomatology-Self Report (QIDS-SR) at screening and randomization, a major depressive episode beginning before age 30, either a chronic recurrent episode (duration≥2 years) or recurrent MDD (at least 2 lifetime episodes), and no antidepressant failure during the current episode. […] In addition, 40 healthy individuals who were medically and psychiatrically healthy, were recruited across the four sites, and assessed in a similar manner as the patients. […]"}, "[3]": {"settings": "for endpoint symptom difference Cohen's d / remission NNT: below median iI-cI activation", "excerpt": "fMRI task and acquisition parameters: The emotional conflict task is a well-characterized paradigm^17,18, that induces emotional conflict through pairing fearful and happy faces with overlaid congruent or incongruent emotion words (participants identify facial expression using a keypad).\nfMRI preprocessing and first-level modeling: For the emotional conflict task, the contrasts of interest were incongruent versus congruent trials (conflict) and post-incongruent incongruent trials versus post-congruent incongruent trials (an established measure of conflict regulation)^11,13,17,18.\nStatistical analyses: All moderation analyses were conducted under an intention-to-treat framework, incorporating all randomized patients after removing those with excessive head motion or low task accuracy. As such, we employed linear mixed models both for the voxelwise neuroimaging data, as well as follow-up analyses on extracted brain signals, while fully controlling for any potential differences due to site of acquisition. Whole-brain voxelwise correction for multiple comparisons was performed at p<0.05 based on the false discovery rate.\nEmotional conflict task: This well-characterized paradigm assesses both emotional conflict and emotional conflict regulation^3,4. Each trial involved presentation of an emotional face with either a fearful or happy expression, drawn from the set of Ekman & Friesen^5, with an overlaid emotion word (“FEAR” or “HAPPY”). Participants were instructed to identify the facial emotion with a key press, while trying to ignore the emotion word. The task consisted of 148 trials, with stimuli presented for 1000 milliseconds (ms) in a fast event-related design. Interstimulus intervals were 3000-5000 ms in a pseudo-randomized order counterbalanced for facial expression, gender, word, and response button. Stimuli were either congruent (e.g. fearful face with “FEAR”) or incongruent (e.g. fearful face with “HAPPY”), and stimuli were furthermore balanced to achieve an equal fraction of current and prior trial congruency, while ensuring no direct stimulus repetitions. Prior to performance of the task during neuroimaging, all participants underwent a practice version to ensure task proficiency was reached (minimum 80% accuracy) and the task instructions were understood. The neuroimaging task lasted 13 minutes and 14 seconds.\nWe constrained analyses to a search space defined by a whole-brain mask constructed from: a) a 30% probabilistic voxelwise threshold derived from spatially normalized, segmented binary gray matter images from an independent sample of healthy comparison participants^9,10; and b) a conjunction map of adequate signal coverage across study scanners constructed by concatenating the binarized individual-level average map of all task experimental conditions within participants acquired at each scanner, thresholding at a minimum of 50% coverage within each scanner sample, and then conjoining these maps across all scanners. Thus, the final search space was a function of both adequate signal coverage across all study scanners as well as a probabilistic assignment to the brain's gray matter. At each voxel within this search space, the moderating effect of baseline brain activation (mean-centered) was examined using a longitudinal linear mixed model implemented in the nlme R package.^14 Modeled effects included a random and fixed intercept, fixed effects of time, time×treatment arm, 4 mean-centered, dummy-coded scanner variables corresponding to: a) Columbia University scanner 1 vs. UT Southwestern scanner; b) Columbia University scanner 2 vs. UT Southwestern scanner; c) Massachusetts General Hospital scanner vs. UT Southwestern scanner; and d) University of Michigan scanner vs. UT Southwestern scanner, treatment arm×time×brain activation, and all model variables in interaction with each of the 4 site variables."}}, "note": "Like-named read-outs stand apart in the source and are kept apart here."}
{"smiles": "CN[C@H]1CC[C@@H](c2ccc(Cl)c(Cl)c2)c2ccccc21", "note": "[sertraline]", "values": [{"measurement": "symptom change with sertraline versus placebo", "setting": "[1]; left amygdala PPI connectivity to dorsal anterior cingulate above median", "result": "failed to show any difference"}, {"measurement": "symptom change with sertraline compared to placebo", "setting": "[1]; left amygdala PPI connectivity to dorsal anterior cingulate below median", "result": "steep decline in symptoms"}, {"measurement": "endpoint symptom reduction with sertraline versus placebo, Cohen's d", "setting": "[2]; HAMD17, linear mixed model, 8 weeks", "result": 0.24}, {"measurement": "remission number needed to treat (NNT)", "setting": "[2]; sertraline versus placebo", "result": 20.1}, {"measurement": "endpoint symptom difference Cohen's d", "setting": "[3]; anterior insula", "result": 0.53}, {"measurement": "remission NNT", "setting": "[3]; anterior insula", "result": 6.3}, {"measurement": "endpoint symptom difference Cohen's d", "setting": "[3]; dorsal anterior cingulate", "result": 0.79}, {"measurement": "remission NNT", "setting": "[3]; dorsal anterior cingulate", "result": 3}, {"measurement": "endpoint symptom difference Cohen's d", "setting": "[3]; frontopolar cortex", "result": 0.85}, {"measurement": "remission NNT", "setting": "[3]; frontopolar cortex", "result": 2.9}, {"measurement": "benefit of sertraline over placebo", "setting": "[3]; patients in bottom half of emotion-regulation capacity", "result": "no benefit"}, {"measurement": "benefit of sertraline over placebo", "setting": "[3]; patients in bottom quartile of emotional conflict regulatory ability", "result": "no benefit"}, {"measurement": "number needed to treat", "setting": "[3]; patients in top half of emotion-regulation capacity", "result": "< 5"}, {"measurement": "number needed to treat versus placebo", "setting": "[3]; patients in top quartile of emotional conflict regulatory ability", "result": "< 4"}]}
